Several values for one entry are separate records, joined by “and”; a condition that tells them apart may be missing. Equal entries are not always repeated. Where two headings read alike, the source gives them in different places.
Experiments:
[1] = system: T47D (human breast cancer cell); assay: MTT assay, in vitro cytotoxicity on T47D
Excerpt: (§2) Cells were purchased from the Cell Bank of the Chinese Academy of Sciences (Kunming, China).

[2] = system: PC-3 cells; assay: Wound healing assay; format: cell-based, human; conditions: 24 h, control group 46.41%
Method: Given that cell migration plays a pivotal role in tumor cell invasion, to further validate the impact of compound 8q on PC-3 cell motility, a wound healing assay was conducted. […] These findings underscore the potent inhibitory effect of compound 8q on the motility of PC-3 cells. […]
a wound healing assay was performed using the method we previously reported1. In short, PC-3 cells were seeded in a six-well plate at a density of 10 × 105 and incubated at a constant temperature of 37 ℃ and 5% CO2 for 24 h. Then the pipette tip was used to create a uniform wound on the surface of cells. Subsequently, after cleaning twice with PBS, the scratch healing of the 8q treatment group and the positive drug treatment […]
was used to measure and quantify cell migration. […]

[3] = system: PC-3 cells; assay: Cell cycle assay (PI, flow cytometry); format: cell-based, human; conditions: 24 h; for Cell cycle distribution, S phase: negative control 20.8%; for Cell cycle distribution, G2/M phase: negative control 23.6%; for Cell cycle distribution, G0/G1 phase: negative control 50.6%
Method: (§1) To analyze the effect of compound 8q on cell cycle, the cycle of PC-3 cells was detected after being treated with compound 8q for 24 h (Figure 5). […] In addition, Cyclin D1, a cell cycle-related protein, is a key regulator of cycle progression, mainly regulating G1/S phase transition. […] In summary, compound 8q can arrest cells in the G0/G1 phase. […]
2.5. Cell cycle arrest of compound 8q on PC-3
To determine the effect of compound 8q on the cell cycle distribution of PC-3 cell, we used our previous method with slight modifications2. Briefly, cells were incubated in a six-well plate with a density of 3 × 105 at 37 ℃ and 5% CO2 for 24 h, followed by the addition of different concentrations of compound 8q for further incubation for 24 h.
Next, the cells were collected and washed twice with PBS. 75% anhydrous ethanol was used to immobilize the cells under overnight conditions at 4 ℃. Subsequently, PBS washed cells, and RNase from the cell cycle assay kit (Solarbio, Beijing, China) was added and incubated in a constant temperature (37 ℃) water bath for 30 min. Then PI was added under dark conditions and incubated at 4 ℃ for another half hour to detect.
The distribution of cycles was analyzed by Flow Jo and Prism 7.04 software. […]

[4] = system: PC-3 (human prostate cancer cell); assay: MTT assay, in vitro cytotoxicity on PC-3
Excerpt: as §2

[5] = system: PC-3 cells; assay: Annexin V-FITC/PI apoptosis, flow cytometry; format: cell-based, human; conditions: 10 μM
Excerpt: Apoptosis is an important target for antitumor therapy. To explore the antitumor mechanism of compound 8q, cell apoptosis was detected using flow cytometry. […] Moreover, reactive oxygen species (ROS) play a significant role in cell growth, differentiation and apoptosis. Excessive ROS can cause oxidative damage and lead to cell apoptosis. […]
2.3.The effect of compound 8q on cell apoptosis
We used Annexin V-FITC/ PI double staining to evaluate cellular apoptosis via flow cytometry to figure out if apoptosis participates in the inhibition of cell growth.
PC-3 cells were seeded in a six-well plate at a density of 3 × 105, and cultured at 37 ℃ and 5% CO2 for 24 h before adding 10 μM. 20 μM and 30 μM compound 8q and 30 μM Harmine to each well. After 48 h, the cells were collected and stained and incubated flowing the manufacturer ’s protocol of the Annexin V-FITC/PI Apoptosis Detection Kit (Solarbio, Beijing, China). After completion, the cells were immediately detected on the Flow Cytometry (Solarbio, Beijing, China). The experimental results were processed using Flow Jo and Prism 7.04 software. […]

[6] = system: K562 (human chronic myeloid leukemia cell); assay: MTT assay, in vitro cytotoxicity on K562
Excerpt: as §2

[7] = system: Cyclin D1; assay: Western blot of Cyclin D1 expression in PC-3 cells; format: cell-based, human; conditions: 30 μM, 24 h, β-Tubulin internal reference
Method: as §1
2.6.Effects of 8q on expression of cell cycle related protein
PC-3 cells were seeded in six-well plates at a density of 3 × 10^5 per well and incubated in 5 % CO2 incubator at 37 ℃ for 24 h. Then different concentrations of 8q and Harmine were added to continue cultivation for 24 h. The prepared 1× RIPA lysis buffer (Solarbio, Beijing, China), as well as protease (Solarbio, Beijing, China) and phosphatase inhibitors (Solarbio, Beijing, China), were added to the well in a ratio of 100:1:1. The cells were scraped off and then lysed on ice for 40 min. Mixed liquid was centrifuged, and the supernatant used the BCA protein assay kit (Beyotime, Shanghai, […]
China) to measure protein concentration. 12.5% SDS-PAGE gel was used to separate the extracted total protein, which was transferred onto a PVDF membrane and sealed with 5% skim milk for 2.5 h. After that, primary antibodies included β-Tubulin and Cyclin D1 were added and incubated overnight at 4 ℃. […]

[8] = system: A549 (human lung cancer cell); assay: MTT assay, in vitro cytotoxicity on A549
Excerpt: as §2

[9] = system: PC-3 cells; assay: Colony formation assay; format: cell-based, human; conditions: Figure 3A
[10] = system: Hek-293T (human embryonic kidney cells); assay: MTT assay, in vitro cytotoxicity on normal Hek-293T; conditions: read-out: Inhibitory Activity/% at 10 μM, Hek-293T
Excerpt: as §2

COc1cc(-c2nc(-c3nnc(SCC(=O)Nc4ccc(CN5CCOCC5)cc4)o3)cc3c2[nH]c2ccccc23)cc(OC)c1OC [Compound 8q, N-(4-(morpholinomethyl)phenyl)-2-((5-(1-(3,4,5-trimethoxyphenyl)-9H-pyrido[3,4-b]indol-3-yl)-1,3,4-oxadiazol-2-yl)thio)acetamide]
IC50 ([1]; read-out: IC50 (Mean ± S.D.), T47D): 9.96 ± 0.63 µM
inhibition at 10 µM ([1]; read-out: Inhibitory Activity/% at 10 μM, T47D): 14.5 ± 7.43%
Migration rate of PC-3 cells ([2]; 10 μM): 29.56%
Migration rate of PC-3 cells ([2]; 20 μM): 26.32%
Migration rate of PC-3 cells ([2]; 30 μM): 19.99%
Cell cycle distribution, S phase ([3]; 10 μM): 14.2%
Cell cycle distribution, G2/M phase ([3]; 10 μM): 20.8%
Cell cycle distribution, G0/G1 phase ([3]; 10 μM): 55.66% and 58.5%
Cell cycle distribution, S phase ([3]; 20 μM): 13.0%
Cell cycle distribution, G2/M phase ([3]; 20 μM): 18.4%
Cell cycle distribution, G0/G1 phase ([3]; 20 μM): 60.83% and 63.0%
Cell cycle distribution, S phase ([3]; 30 μM): 9.01%
Cell cycle distribution, G2/M phase ([3]; 30 μM): 20.5%
Cell cycle distribution, G0/G1 phase ([3]; 30 μM): 62.03% and 64.9%
IC50 ([4]; Homo sapiens, read-out: IC50 (Mean ± S.D.), PC-3, average of three replicates): < 10 µM
inhibition at 10 µM ([4]; Homo sapiens, read-out: Inhibitory Activity/% at 10 μM, PC-3, Table 2 (8 series), 10 μM, average of three replicates, "/" means no anticancer activity): 46.1 ± 0.74%
IC50 ([4]; read-out: IC50 (Mean ± S.D.), PC-3, average of three replicates): 9.86 ± 1.03 µM
Total apoptosis rate in PC-3 cells ([5]; 48 h): 63.23%
Annexin V-FITC/PI flow cytometry quadrant Q1 ([5]; Figure 4A): 0.35
Annexin V-FITC/PI flow cytometry quadrant Q2 ([5]; Figure 4A): 22.7
Annexin V-FITC/PI flow cytometry quadrant Q3 ([5]; Figure 4A): 32.9
Annexin V-FITC/PI flow cytometry quadrant Q4 ([5]; Figure 4A): 44.1
IC50 ([6]; Homo sapiens, K562, read-out: IC50 (Mean ± S.D.), K562, average of three replicates): 11.2 µM
inhibition at 10 µM ([6]; Homo sapiens, K562, read-out: Inhibitory Activity/% at 10 μM, K562): 25.6 ± 14.9%
IC50 ([6]; read-out: IC50 (Mean ± S.D.), K562, average of three replicates): 11.7 ± 0.21 µM
Expression of Cyclin D1 [7]: significantly downregulated
IC50 ([8]; A549, read-out: IC50 (Mean ± S.D.), A549): 26.2 ± 1.51 µM
inhibition at 10 µM ([8]; A549, read-out: Inhibitory Activity/% at 10 μM, A549): 32.9 ± 4.3%
Inhibition of colony formation (proliferation) of PC-3 cells [9]: concentration-dependent manner
inhibition at 10 µM [10]: 54.8 ± 0.99%
